The structures appear in SMILES notation.

The target of assay [1] is T1, HSP90α (Homo sapiens, UniProt P07900). The assay can be described thus: SPR (BIAcore […], immobilized full-length HSP90α); also competes with Biotin-X66 for the N-terminal domain in pull-down. Type of assay: binding. Further details: gene HSP90AA1; recombinant human full-length HSP90α. In general terms: SPR reads the build-up and loss of mass on a sensor chip optically.

The target of assay [2] is T1, HSP90α. The assay can be described thus: streptavidin pull-down of purified full-length HSP90α and NTD, competed by excess soluble X66. The class given is binding. On the set-up: gene HSP90AA1; recombinant human full-length protein and its N-terminal fragment, but not the C-terminal fragment.

The term Kd denotes the equilibrium constant for the complex coming apart. As to `Cc1cc(C)n(-c2nc(NN=Cc3c[nH]c4ccccc34)nc(Nc3ccc(Br)cc3)n2)n1` [X66, 4-(2-((1H-indol-3-yl)methylene)hydrazinyl)-N-(4-bromophenyl)-6-(3,5-dimethyl-1H -pyrazol-1-yl)-1,3,5-triazin-2-amine], the Kd in assay [1] came out at 5.3 µM.
Turning to `Cc1cc(C)n(-c2nc(NN=Cc3cn(C(=O)CCCC[C@@H]4SC[C@@H]5NC(=O)N[C@@H]54)c4ccccc34)nc(Nc3ccc(Br)cc3)n2)n1` [Biotin-X66], the “streptavidin pull-down of purified full-length HSP90α and NTD, competed by exces” value in assay [2] is “Biotin-X66 was able to isolate the recombinant human full-length protein and its N-terminal fragment, but not the C-terminal fragment”.

Values taken from PMC5045423, “X66, a novel N-terminal heat shock protein 90 inhibitor, exerts antitumor effects without induction of heat shock response” (Oncotarget, 2016).
